Assay [1] has as its system extrinsic pathway of coagulation. Kind of assay: Plasma clotting assay, diluted prothrombin time (dPT). Type of assay: biochemical, human. The settings on record: prothrombin-deficient citrated plasma 1:5, 10 mM CaCl2; peptide 0–25 μM, 60 min 37 °C; three experiments (Fig 6B). On the procedure: Figure 6 Pro-FSAP activation and clotting in plasma by NNKC9/41: (A) citrate plasma (1:12 dilution) from donors with WT/WT, WT/MI, and MI/MI genotypes and WT-FSAP-deficient plasma (FSAP-DP) were compared. Substrate turnover was monitored after addition of NNKC9/41 or the Ser–Ser linear peptide (25 μM each). Results are shown as mean + range of duplicate wells. (B) Pooled prothrombin-deficient citrated plasma (1:5 dilution) was recalcified with 10 mM CaCl2 and incubated with NNKC9/41 or scrambled control peptide (0–25 μM each) for 60 min at 37 °C in the presence or absence of the FSAP-inhibitory MA-FSAP-38C7 (5 μg/mL). Initiation of clotting was achieved by adding the tissue factor/phospholipid and prothrombin complex concentrate. Clotting time was measured as diluted prothrombin time (dPT) in seconds. Data are the mean of three independent experiments. […]
Prothrombin-deficient citrated pool plasma (Haemochrom Diagnostica, diluted 1:5 in HBS, pH 7.4) was recalcified with 10 mM CaCl2 and incubated with peptides for 60 min at 37 °C in the presence or absence of the FSAP-inhibitory MA-FSAP-38C7 (5 μg/mL). […] Clot formation was measured optically at 405 nm in a plate reader (Tecan, Crailsheim, Germany). The time from starting the reaction to 50% maximum clot turbidity was measured as diluted prothrombin time (dPT) in seconds.

In assay [2] the test system is pro-FSAP in WT/MI plasma. Kind of assay: Substrate turnover in WT/MI plasma. Type of assay: biochemical, human. To be noted: WT/MI citrate plasma 1:12; 25 μM (Fig 6A). The procedure: Figure 6 Pro-FSAP activation and clotting in plasma by NNKC9/41: (A) citrate plasma (1:12 dilution) from donors with WT/WT, WT/MI, and MI/MI genotypes and WT-FSAP-deficient plasma (FSAP-DP) were compared. Substrate turnover was monitored after addition of NNKC9/41 or the Ser–Ser linear peptide (25 μM each). Results are shown as mean + range of duplicate wells. (B) Pooled prothrombin-deficient citrated plasma (1:5 dilution) was recalcified with 10 mM CaCl2 and incubated with NNKC9/41 or scrambled control peptide (0–25 μM each) for 60 min at 37 °C in the presence or absence of the FSAP-inhibitory MA-FSAP-38C7 (5 μg/mL). Initiation of clotting was achieved by adding the tissue factor/phospholipid and prothrombin complex concentrate. Clotting time was measured as diluted prothrombin time (dPT) in seconds. Data are the mean of three independent experiments. The relative dPT in % of the untreated control is presented as mean ± standard error (SE) (*p <0.05, two-way analysis of variance (ANOVA) and Bonferroni post-test).
Human citrate plasma (0.38% w/v) or hirudin plasma (25 μg/mL Lepirudin) was obtained from five healthy donors. […] Hydrolysis of the fluorogenic substrates was measured using a Synergy HI plate reader with excitation at 320 nm and emission at 460 nm at 37 °C for 60 min. The maximal velocity was calculated from the linear part of the progress curve. […]

The test system of assay [3] is light chain/serine protease domain (SPD). Put plainly: Binding of biotinylated peptides to captured recombinant FSAP light chain/SPD. Also on record: species or system human. To be noted: peptide 1 μM; triplicate wells (Fig 2E). On the procedure:
Figure 2 NNKC9/41 interacts with the NTR of pro-FSAP: (A) To determine peptide binding to pro-FSAP, wells were coated with 2 μg/mL pro-FSAP and biotinylated NNKC9/41 and NNK11/189 and their respective scrambled controls were added in different concentration (0–5 μM). Peroxidase-labeled streptavidin was used to detect peptide binding. (B) Same procedure as in (A) except that different proteins were immobilized and biotinylated NNKC9/41 (0–30 μM) was added and its binding was measured. (C) Schematic structure of pro-FSAP with the heavy chain consisting of an NTR, three EGF domains, and a kringle domain, followed by the light chain harboring the serine protease domain (SPD). The binding domains of antibodies used in this study are indicated. (D) Recombinant complete heavy chain (heavy) and truncated heavy chain variants ΔNTR, ΔEGF1, ΔEGF2, ΔEGF3, and ΔKringle were expressed in bacteria and analyzed by sodium dodecyl sulfate poly(acrylamide) gel electrophoresis (SDS-PAGE) followed by Coomassie staining. […] Biotinylated NNKC9/41 or the scrambled control peptide was added at 1 μM and peptide binding was measured with peroxidase-linked streptavidin. […]
Wells were coated with anti-FSAP polyclonal antibodies (5 μg/mL). […] Subsequently, the plates were washed, and bound peptides were detected with peroxidase-coupled streptavidin. […]

Assay [4] relates to Factor XIIa. Kind of assay: Specificity: factor XIIa. To be noted: Factor XIIa 20 nM; peptide 0-50 μM; CS31 (Fig S7). Type of assay: biochemical. On the procedure: Fig S7. Specificity of NNKC9/41 towards other pro-enzymes: Zymogens and their respective active enzymes were incubated with NNKC9/41 or Ser-Ser linear peptide (0-50 μM) and the enzyme activity was monitored using respective chromogenic substrates. Activity of Factor XII(100 nM) and Factor XIIa (20 nM) was measured with the substrate CS31 (1000 µM). Pro-thrombin (100 nM) and thrombin (20 nM) […]
Bend, IN, USA) except plasminogen and FSAP, which were isolated in house; and pro-uPA was from Grünenthal (Stolberg, Germany). All chromogenic substrates were from Hyphen Biomed (Neuville Sur Oise, France). Experiments were carried out in TBS with Tween-20 (0.1 % wt/ vol) BSA (0.3% wt/vol) and CaCl2 (2 mM). Absorbance at 405 nm was measured over time and the enzyme activity is depicted was measured in duplicates (mean + or -range) and similar results were obtained in 3

For the sequence CRGAMWMYKRC [NNKC9/41], the “clotting time (diluted prothrombin time)” value in assay [1] is listed as “significant effect on lowering the clotting time”. The substrate turnover result in assay [2] is “low turnover”. Moreover, the “peptide binding to light chain/SPD” value in assay [3] is listed as “very low binding”. Also, the effect on activity result in assay [4] was “did not influence the activity”.

The values above are taken from PMC9486805, “Identification of a Phage Display-Derived Peptide Interacting with the N-Terminal Region of Factor VII Activating Protease (FSAP) Enables Characterization of Zymogen Activation” (ACS Chemical Biology, 2022).
